{"source": "patent US20050069887A1", "about": "“Dna synthesis promoters dna polymerase-associated factors and utilization thereof” (priority 2001, published 2005)", "key": {"KOD DNA polymerase": {"molecular_target": "KOD DNA polymerase (Thermococcus kodakarensis, UniProt P77933, DEL407-766/DEL853-1389)", "sequence (P77933 other isoform, or with tags, fused parts or gaps DEL407-766/DEL853-1389)": "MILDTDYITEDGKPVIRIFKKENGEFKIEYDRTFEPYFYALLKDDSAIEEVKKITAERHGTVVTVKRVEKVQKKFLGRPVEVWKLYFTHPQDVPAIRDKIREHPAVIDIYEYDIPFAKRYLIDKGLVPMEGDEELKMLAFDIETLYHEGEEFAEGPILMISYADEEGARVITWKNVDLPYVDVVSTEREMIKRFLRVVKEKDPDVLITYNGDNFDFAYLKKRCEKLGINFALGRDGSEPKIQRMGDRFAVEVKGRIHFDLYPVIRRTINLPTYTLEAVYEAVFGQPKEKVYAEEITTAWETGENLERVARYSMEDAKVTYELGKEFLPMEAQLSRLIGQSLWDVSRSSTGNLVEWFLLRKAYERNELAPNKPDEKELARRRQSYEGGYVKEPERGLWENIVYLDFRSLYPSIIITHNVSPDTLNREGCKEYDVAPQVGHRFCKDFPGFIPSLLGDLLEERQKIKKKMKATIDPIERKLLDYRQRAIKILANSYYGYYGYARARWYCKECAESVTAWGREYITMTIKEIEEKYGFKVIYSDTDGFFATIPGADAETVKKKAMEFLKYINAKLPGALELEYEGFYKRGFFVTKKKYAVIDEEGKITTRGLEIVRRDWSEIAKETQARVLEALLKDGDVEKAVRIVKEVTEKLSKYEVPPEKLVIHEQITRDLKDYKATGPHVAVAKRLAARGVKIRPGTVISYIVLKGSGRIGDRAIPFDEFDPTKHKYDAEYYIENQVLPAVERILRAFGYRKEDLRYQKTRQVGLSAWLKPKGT", "experiment": "Long PCR using KOD DNA polymerase (Examples 2-5 to 2-8)", "format": "biochemical, Thermococcus kodakaraensis KOD1", "protocol": "Oxalate ion and betaine were investigated for their synergistic effectiveness in long PCR amplification of a target DNA of more than 20 kb derived from the human genome using KOD DNA polymerase, successful amplification of which using α-type enzyme alone has not been reported. Potassium oxalate was added to the PCR buffer supplied with KOD-plus (TOYOBO CO.,LTD.) to attain a final concentration of 2 mM. Also used were 0.4 mM dNTPs, 0.3 μM of a pair of primers of SEQ ID Nos:20 and 21, and 2.0 U KOD DNA polymerase. 200 ng of genomic DNA derived from human cell line K562 was used as a template. This reaction mixture was subjected to PCR by using GeneAmp2400 (PE Applied Biosystems) to investigate the influence on the PCR results of varying the concentration of betaine. The PCR conditions were as follows: 1 preliminary reaction of 94° C. for 2 minutes; 5 cycles of 98° C. for 10 seconds and 74° C. for 18 minutes; 5 cycles of 98° C. for 10 seconds and 72° C. for 18 minutes; 5 cycles of 98° C. for 10 seconds and 70° C. for 18 minutes; 25 cycles of 98° C. for 10 second and 68° C. for 18 minutes; and 1 additional reaction of 68° C. for 7 minutes.\nOxalate ion and betaine were investigated for their synergistic effectiveness in long PCR amplification of a target DNA of more than 20 kb derived from the human genome using KOD DNA polymerase, successful amplification of which using α-type enzyme alone has not been reported. Betaine was added to the PCR buffer supplied with KOD-plus (TOYOBO CO., LTD.) to attain a final concentration of 1.5 M. Also used were 2.0 U KOD DNA polymerase, 0.4 mM dNTPs and 0.3 μM of a pair of primers of SEQ ID Nos:22 and 23 respectively for the PCR amplification of 22 kb DNA in tPA gene, and SEQ ID Nos:22 and 24 respectively for the PCR amplification of tPA 24 kb DNA. 200 ng of genomic DNA derived from human cell line K562 was used as a template. This reaction mixture was subjected to PCR by using GeneAmp2400 (PE Applied Biosystems) to investigate the influence on the PCR results of varying the concentration of potassium oxalate. The PCR conditions were as follows: 1 preliminary reaction of 94° C. for 2 minutes; 5 cycles of 98° C. for 10 seconds and 74° C. for 18 minutes; 5 cycles of 98° C. for 10 seconds and 72° C. for 18 minutes; 5 cycles of 98° C. for 10 seconds and 70° C. for 18 minutes; 25 cycles of 98° C. for 10 seconds and 68° C. of 18 minutes; and 1 additional reaction of 68° C. for 7 minutes.\nUnder the aforementioned conditions in which oxalate ions and betaine are present, the effect of hot start PCR using antibodies in long PCR using KOD DNA polymerase was investigated. Potassium oxalate and betaine were added to the PCR buffer supplied with KOD-plus (TOYOBO CO.LTD.) to attain a final oxalate concentration of 2 mM and a final betaine concentration of 1.5 M. Also used were 2.0 U KOD DNA polymerase, 0.4 mM dNTPs and 0.3 μM of a pair of primers of SEQ ID Nos:22 and 25 for PCR amplification of tPA 12 kb DNA; SEQ ID Nos:22 and 26 for PCR amplification of tPA 15 kb DNA; SEQ ID Nos:22 and 27 for PCR amplification of tPA 18 kb DNA; SEQ ID Nos:22 and 23 for PCR amplification of tPA 22 kb DNA; SEQ ID Nos:22 and 24 for PCR amplification of tPA 24 kb DNA; and SEQ ID Nos:28 and 29 for PCR amplification of β-globin 17.5 kb DNA. 200 ng of genomic DNA derived from human cell line K562 was used as a template. […]"}, "EX-Taq DNA polymerase": {"tested_on": "EX-Taq DNA polymerase", "experiment": "PCR using EX-Taq DNA polymerase with added salts (Examples 1-1 to 1-3)", "format": "biochemical", "protocol": "The effect produced by the addition of oxalate ions was investigated in the PCR using EX-Taq DNA polymerase. A PCR buffer supplied with EX-Taq (TAKARA) and 0.3 μM of a pair of primers of SEQ ID Nos:8 and 9 and 0.2 mM dNTPs were used. PCR was performed by using 1.0 U EX-Taq DNA polymerase and 20 ng of genomic DNA derived from human cell line K562 as a template, with the influence on the PCR result caused by varying the concentration of added oxalate ion being investigated. The PCR conditions were as follows: 1 preliminary reaction of 94° C. for 2 minutes, and then 35 cycles of 94° C. for 15 seconds, 60° C. for 30 seconds and 68° C. for 8.5 minutes. This PCR amplification was performed by using GeneAmp2400 (PE Applied Biosystems).\nSalts (potassium chloride, potassium acetate, potassium oxalate, sodium oxalate, potassium sulfate) were investigated for their effectiveness in PCR using EX-Taq DNA polymerase under the same conditions as Example 1. Each salts was used in an amount of 4 to 6 mM of ion equivalent"}, "[1]": {"conditions": "2 mM potassium oxalate, target of more than 20 kb, FIG. 15"}}, "note": "“And” between values parts separate entries of the source, which are not always exact repeats. Equal entries are not always repeated."}
{"smiles": "C[N+](C)(C)CC(=O)[O-]", "note": "[betaine, trimethylglycine]", "values": [{"measurement": "betaine concentration at which sufficient amplification of both target DNAs was observed", "setting": "KOD DNA polymerase; 2 mM potassium oxalate, tPA 9 kb and 12 kb, FIG. 18", "result": "1 M and 1.5 M"}, {"measurement": "betaine concentration at which amplification of the target DNA was not observed", "setting": "KOD DNA polymerase; [1]", "result": "≤ 1.2", "unit": "M"}, {"measurement": "betaine concentration at which sufficient amplification was found", "setting": "KOD DNA polymerase; [1]", "result": "1.4 M and 1.6 M"}]}
{"smiles": "O=C([O-])C(=O)[O-].[K+].[K+]", "note": "[potassium oxalate]", "values": [{"measurement": "potassium oxalate concentration at which amplification was confirmed", "setting": "KOD DNA polymerase; 1.5 M betaine, tPA 22 kb DNA, FIG. 16", "result": 2, "unit": "mM"}, {"measurement": "potassium oxalate concentration at which slight amplification was observed", "setting": "KOD DNA polymerase; 1.5 M betaine, tPA 24 kb DNA, FIG. 16", "result": "1.5 mM and 2.0 mM"}, {"measurement": "amplification of target DNA (electrophoresis pattern)", "setting": "EX-Taq DNA polymerase; carboxylate salts, FIG. 3", "result": "amplification of the target DNA was observed"}, {"measurement": "amplification of target DNA (electrophoresis pattern)", "setting": "EX-Taq DNA polymerase; salt at 4 to 6 mM of ion equivalent, FIG. 2", "result": "Amplification was observed"}]}
